Test results: patent US20230295131A1, “INHIBITORS OF RHO-ASSOCIATED COILED-COIL KINASE” (Angion Biomedica Corp., priority 2020, published 2023)
Where two headings read alike, the source gives them in different places.

Legend:
ROCK1 = molecular target: T1, ROCK1 (Homo sapiens, UniProt Q13464); assay: ROCK1 kinase binding affinity, DiscoverX KINOMEscan KdELECT; conditions: 11-point 3-fold dilution
T1 construct: T7 phage fusion (kinase-tagged phage) or DNA tag for qPCR detection
Experimental: (§1) 1. ROCK1 and ROCK2 kinase assays: The ROCK1 and ROCK2 kinase binding affinities of compounds in this disclosure were determined by DiscoverX's KINOMEscan™ KdELECT technology (https://www.discoverx.com/kinomescan-elect-kinase-screening-and-profiling-services): Kinase-tagged T7 phage strains were prepared in an E. coli host derived from the BL21 strain. E. coli were grown to log-phase and infected with T7 phage and incubated with shaking at 32° C. until lysis. The lysates were centrifuged and filtered to remove cell debris. The remaining kinases were produced in HEK-293 cells and subsequently tagged with DNA for qPCR detection. […] The liganded beads were blocked with excess biotin and washed with blocking buffer (SeaBlock (Pierce), 1% BSA, 0.05% Tween 20, 1 mM DTT) to remove unbound ligand and to reduce nonspecific binding. […] Kds were determined using an 11-point 3-fold compound dilution series with three DMSO control points. […] The compounds were then diluted directly into the assays such that the final concentration of DMSO was 0.9%. All reactions performed in polypropylene 384-well plate. Each was a final volume of 0.02 ml. […] The kinase concentration in the eluates was measured by qPCR.

ROCK2 = molecular target: T2, ROCK2 (Homo sapiens, UniProt O75116); assay: ROCK2 kinase binding affinity, DiscoverX KINOMEscan KdELECT; conditions: for ROCK2 Selectivity: selectivity for ROCK2 over ROCK1 from Kd
T2 construct: T7 phage fusion (kinase-tagged phage) or DNA tag for qPCR detection
T2 sequence (O75116 whole entry, the tested form may be a part): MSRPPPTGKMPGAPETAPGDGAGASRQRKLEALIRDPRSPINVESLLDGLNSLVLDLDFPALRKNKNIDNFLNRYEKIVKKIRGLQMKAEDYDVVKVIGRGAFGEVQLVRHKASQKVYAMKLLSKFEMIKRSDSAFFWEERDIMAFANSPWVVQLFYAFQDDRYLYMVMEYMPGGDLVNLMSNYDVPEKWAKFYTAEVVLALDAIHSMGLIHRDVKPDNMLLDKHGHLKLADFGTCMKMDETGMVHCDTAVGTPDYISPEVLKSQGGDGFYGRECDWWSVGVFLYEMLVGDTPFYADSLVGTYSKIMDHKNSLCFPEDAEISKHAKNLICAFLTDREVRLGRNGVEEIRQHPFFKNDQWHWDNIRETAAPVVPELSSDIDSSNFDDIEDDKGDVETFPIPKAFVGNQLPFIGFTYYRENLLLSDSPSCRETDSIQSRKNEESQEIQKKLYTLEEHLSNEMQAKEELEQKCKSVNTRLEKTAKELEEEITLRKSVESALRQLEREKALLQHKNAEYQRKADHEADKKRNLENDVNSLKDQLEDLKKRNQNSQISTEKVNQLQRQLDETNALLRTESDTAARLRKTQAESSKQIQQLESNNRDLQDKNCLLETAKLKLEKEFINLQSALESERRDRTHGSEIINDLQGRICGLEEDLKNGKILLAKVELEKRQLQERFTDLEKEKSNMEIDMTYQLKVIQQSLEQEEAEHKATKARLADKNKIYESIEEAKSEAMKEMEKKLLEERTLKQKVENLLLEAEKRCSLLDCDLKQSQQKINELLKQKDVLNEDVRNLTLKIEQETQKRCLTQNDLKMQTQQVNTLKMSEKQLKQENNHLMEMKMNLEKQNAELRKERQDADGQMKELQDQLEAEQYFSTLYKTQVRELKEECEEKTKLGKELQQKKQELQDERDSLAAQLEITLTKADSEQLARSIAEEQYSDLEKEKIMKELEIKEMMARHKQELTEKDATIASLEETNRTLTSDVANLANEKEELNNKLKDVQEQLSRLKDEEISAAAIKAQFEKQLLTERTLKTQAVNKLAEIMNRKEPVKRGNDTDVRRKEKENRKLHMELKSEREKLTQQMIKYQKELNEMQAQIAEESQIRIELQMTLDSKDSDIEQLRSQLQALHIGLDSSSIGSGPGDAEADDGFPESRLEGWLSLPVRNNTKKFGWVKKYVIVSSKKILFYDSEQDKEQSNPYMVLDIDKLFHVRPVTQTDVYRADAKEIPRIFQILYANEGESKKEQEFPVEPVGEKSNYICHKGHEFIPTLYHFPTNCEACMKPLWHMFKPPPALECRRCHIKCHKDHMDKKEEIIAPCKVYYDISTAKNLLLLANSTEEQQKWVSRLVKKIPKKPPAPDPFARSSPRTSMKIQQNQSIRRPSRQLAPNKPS
Experimental: as §1

[1] = KINOMEscan KdELECT, 11-point 3-fold dilution, read-out: Kd (μM) ROCK2

T1 sequence (Q13464 whole entry, the tested form may be a part): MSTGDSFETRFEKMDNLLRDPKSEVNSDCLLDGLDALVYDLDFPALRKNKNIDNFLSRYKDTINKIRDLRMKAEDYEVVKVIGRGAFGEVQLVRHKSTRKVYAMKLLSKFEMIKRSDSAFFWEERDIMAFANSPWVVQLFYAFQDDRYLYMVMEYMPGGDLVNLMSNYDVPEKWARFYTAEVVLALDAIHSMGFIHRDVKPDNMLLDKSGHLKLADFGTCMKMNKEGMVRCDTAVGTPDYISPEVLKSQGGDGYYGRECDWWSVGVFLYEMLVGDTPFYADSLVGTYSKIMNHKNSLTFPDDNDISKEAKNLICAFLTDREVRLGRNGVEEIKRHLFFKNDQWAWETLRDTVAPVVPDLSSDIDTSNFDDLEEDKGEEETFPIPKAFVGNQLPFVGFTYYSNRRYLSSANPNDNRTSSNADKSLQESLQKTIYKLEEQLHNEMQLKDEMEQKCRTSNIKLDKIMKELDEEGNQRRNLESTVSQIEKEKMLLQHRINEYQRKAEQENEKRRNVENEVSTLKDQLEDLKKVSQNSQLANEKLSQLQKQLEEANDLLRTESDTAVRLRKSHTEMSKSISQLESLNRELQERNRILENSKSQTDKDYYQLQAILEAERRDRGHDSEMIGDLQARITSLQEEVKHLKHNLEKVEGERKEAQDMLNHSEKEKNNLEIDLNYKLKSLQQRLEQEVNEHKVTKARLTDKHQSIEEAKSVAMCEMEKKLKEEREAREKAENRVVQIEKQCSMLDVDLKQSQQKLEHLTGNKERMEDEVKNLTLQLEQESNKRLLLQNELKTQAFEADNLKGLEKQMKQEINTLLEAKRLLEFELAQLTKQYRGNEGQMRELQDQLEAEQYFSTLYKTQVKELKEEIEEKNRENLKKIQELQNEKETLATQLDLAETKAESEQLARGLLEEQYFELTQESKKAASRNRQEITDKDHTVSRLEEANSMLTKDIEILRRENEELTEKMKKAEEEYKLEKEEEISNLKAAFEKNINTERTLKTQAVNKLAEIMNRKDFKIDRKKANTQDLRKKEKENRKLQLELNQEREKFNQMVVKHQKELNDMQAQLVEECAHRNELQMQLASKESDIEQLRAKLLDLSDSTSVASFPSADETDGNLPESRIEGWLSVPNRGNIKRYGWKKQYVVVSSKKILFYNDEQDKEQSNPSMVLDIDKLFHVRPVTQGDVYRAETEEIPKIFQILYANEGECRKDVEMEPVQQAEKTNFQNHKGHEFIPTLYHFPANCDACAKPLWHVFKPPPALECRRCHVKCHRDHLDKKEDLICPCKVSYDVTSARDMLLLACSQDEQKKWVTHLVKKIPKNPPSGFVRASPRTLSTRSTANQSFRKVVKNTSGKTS

| Structure (SMILES) | Kd (ROCK1) [µM] | Kd (ROCK2; [1]) [µM] | ROCK2 Selectivity (ROCK2) | Kd (ROCK2) [µM] |
| --- | --- | --- | --- | --- |
| C(#Cc1ccnc(-c2ccnc(NCc3cc4ccccc4cn3)n2)n1)c1ccc2[nH]ncc2c1 [Ex. 25, 4-((1H-Indazol-5-yl)ethynyl)-N-(isoquinolin-3-ylmethyl)-[2,4′-bipyrimidin]-2′-amine] | 0.1 to 0.99 | 0.01 to 0.099 | * (<50-fold selectivity for ROCK2) |  |
| COc1ccccc1CNc1nccc(-c2nccc(C#Cc3ccc4[nH]ncc4c3)n2)n1 [Ex. 18, 4-((1H-Indazol-5-yl)ethynyl)-N-(2-methoxybenzyl)-[2,4′-bipyrimidin]-2′-amine] | 1 to 9.9 | 0.01 to 0.099 | ** (50 to 150-fold selectivity for ROCK2) |  |
| Fc1ccc(CNc2nccc(-c3nccc(C#Cc4ccc5[nH]nc(F)c5c4)n3)n2)nc1 [Ex. 45, 4-((3-Fluoro-1H-indazol-5-yl)ethynyl)-N-((5-fluoropyridin-2-yl)methyl)-[2,4′-bipyrimidin]-2′-amine] | 10 to 100 | 0.01 to 0.099 | **** (>500-fold selectivity for ROCK2) |  |
| CN(C)C(=O)CNc1nccc(-c2nccc(C#Cc3ccc4[nH]ncc4c3)n2)n1 [Ex. 19, 2-((4-((1H-Indazol-5-yl)ethynyl)-[2,4′-bipyrimidin]-2′-yl)amino)-N,N-dimethylacetamide] | 0.1 to 0.99 | 0.01 to 0.099 | ** (50 to 150-fold selectivity for ROCK2) |  |
| O=C(CNc1nccc(-c2nccc(C#Cc3ccc4[nH]ncc4c3)n2)n1)NC12CCC(CC1)C2 [Ex. 2, 2-((4-((1H-Indazol-5-yl)ethynyl)-[2,4′-bipyrimidin]-2′-yl)amino)-N-(bicyclo[2.2.1]heptan-1-yl)acetamide] | 0.1 to 0.99 | < 0.01 | *** (151 to 500-fold selectivity for ROCK2) |  |
| C(#Cc1ccnc(-c2ccnc(NCC3CCCC3)n2)n1)c1ccc2[nH]ncc2c1 [Ex. 44, 4-((1H-Indazol-5-yl)ethynyl)-N-(cyclopentylmethyl)-[2,4′-bipyrimidin]-2′-amine] | 10 to 100 | 0.01 to 0.099 | *** (151 to 500-fold selectivity for ROCK2) |  |
| Fc1cnccc1CNc1nccc(-c2nccc(C#Cc3ccc4[nH]ncc4c3)n2)n1 [Ex. 31, 4-((1H-Indazol-5-yl)ethynyl)-N-((3-fluoropyridin-4-yl)methyl)-[2,4′-bipyrimidin]-2′-amine] | 1 to 9.9 | 0.01 to 0.099 | ** (50 to 150-fold selectivity for ROCK2) |  |
| C[C@H](O)CNc1nccc(-c2nccc(C#Cc3ccc4[nH]ncc4c3)n2)n1 [Ex. 80, (S)-1-((4-((1H-Indazol-5-yl)ethynyl)-[2,4′-bipyrimidin]-2′-yl)amino)propan-2-ol] | 1 to 9.9 |  | ** (50 to 150-fold selectivity for ROCK2) | 0.1 to 0.99 |
| Fc1cccc(CNc2nccc(-c3nccc(C#Cc4ccc5[nH]ncc5c4)n3)n2)n1 [Ex. 32, 4-((1H-Indazol-5-yl)ethynyl)-N-((6-fluoropyridin-2-yl)methyl)-[2,4′-bipyrimidin]-2′-amine] | 1 to 9.9 | 0.01 to 0.099 | ** (50 to 150-fold selectivity for ROCK2) |  |
| C(#Cc1ccnc(-c2ccnc(NCC3CCCCN3)n2)n1)c1ccc2[nH]ncc2c1 (stereo not drawn) [Ex. 9, 4-((1H-Indazol-5-yl)ethynyl)-N-(piperidin-2-ylmethyl)-[2,4′-bipyrimidin]-2′-amine] | 1 to 9.9 | 0.1 to 0.99 | * (<50-fold selectivity for ROCK2) |  |
| Fc1cc(C#Cc2ccnc(-c3ccnc(NCC4CCCO4)n3)n2)cc2cn[nH]c12 (stereo not drawn) [Ex. 49, 4-((7-Fluoro-1H-indazol-5-yl)ethynyl)-N-((tetrahydrofuran-2-yl)methyl)-[2,4′-bipyrimidin]-2′-amine] | 1 to 9.9 | < 0.01 | *** (151 to 500-fold selectivity for ROCK2) |  |
| Fc1ccc(CNc2nccc(-c3nccc(C#Cc4ccc5[nH]ncc5c4)n3)n2)cc1 [Ex. 8, 4-((1H-Indazol-5-yl)ethynyl)-N-(4-fluorobenzyl)-[2,4′-bipyrimidin]-2′-amine] | 1 to 9.9 | 0.01 to 0.099 | *** (151 to 500-fold selectivity for ROCK2) |  |
| C(#Cc1ccnc(-c2ccnc(NCc3ncccn3)n2)n1)c1ccc2[nH]ncc2c1 [Ex. 7, 4-((1H-indazol-5-yl)ethynyl)-N-(pyrimidin-2-ylmethyl)-[2,4′-bipyrimidin]-2′-amine] | 0.1 to 0.99 | 0.01 to 0.099 | * (<50-fold selectivity for ROCK2) |  |
| Fc1ncccc1CNc1nccc(-c2nccc(C#Cc3cc(F)c4[nH]ncc4c3)n2)n1 [Ex. 42, 4-((7-Fluoro-1H-indazol-5-yl)ethynyl)-N-((2-fluoropyridin-3-yl)methyl)-[2,4′-bipyrimidin]-2′-amine] | 1 to 9.9 | 0.01 to 0.099 | ** (50 to 150-fold selectivity for ROCK2) |  |
| O=C(CNc1nccc(-c2nccc(C#Cc3ccc4[nH]ncc4c3)n2)n1)N1CC[C@H](O)C1 [Ex. 1, (S)-2-((4-((1H-Indazol-5-yl)ethynyl)-[2,4′-bipyrimidin]-2′-yl)amino)-1-(3-hydroxypyrrolidin-1-yl)ethanone] | 0.1 to 0.99 | < 0.01 | ** (50 to 150-fold selectivity for ROCK2) |  |

Second part, led by results:

| Kd (ROCK1) [µM] | Kd (ROCK2; [1]) [µM] | Structure (SMILES) | ROCK2 Selectivity (ROCK2) | Kd (ROCK2) [µM] |
| --- | --- | --- | --- | --- |
| 1 to 9.9 | < 0.01 | C(#Cc1ccnc(-c2ccnc(N[C@H]3CCOC3)n2)n1)c1ccc2[nH]ncc2c1 [Ex. 62, (S)-4-((1H-Indazol-5-yl)ethynyl)-N-(tetrahydrofuran-3-yl)-[2,4′-bipyrimidin]-2′-amine] | *** (151 to 500-fold selectivity for ROCK2) |  |
| 1 to 9.9 | < 0.01 | O=S1(=O)CCC(CNc2nccc(-c3nccc(C#Cc4ccc5[nH]ncc5c4)n3)n2)CC1 [Ex. 85, 4-(((4-((1H-Indazol-5-yl)ethynyl)-[2,4′-bipyrimidin]-2′-yl)amino)methyl)tetrahydro-2H-thiopyran 1,1-dioxide] | *** (151 to 500-fold selectivity for ROCK2) |  |
| 0.1 to 0.99 | < 0.01 | O=S1(=O)CC[C@H](Nc2nccc(-c3nccc(C#Cc4ccc5[nH]ncc5c4)n3)n2)C1 [Ex. 83, (S)-3-((4-((1H-Indazol-5-yl)ethynyl)-[2,4′-bipyrimidin]-2′-yl)amino)tetrahydrothiophene 1,1-dioxide] | *** (151 to 500-fold selectivity for ROCK2) |  |
| 0.1 to 0.99 | < 0.01 | O[C@H]1CC[C@@H](Nc2nccc(-c3nccc(C#Cc4ccc5[nH]ncc5c4)n3)n2)C1 [Ex. 82, (1S,3R)-3-((4-((1H-Indazol-5-yl)ethynyl)-[2,4′-bipyrimidin]-2′-yl)amino)cyclopentanol] | **** (>500-fold selectivity for ROCK2) |  |
| 0.1 to 0.99 | 0.01 to 0.099 | O=S1(=O)CC[C@@H](Nc2nccc(-c3nccc(C#Cc4ccc5[nH]ncc5c4)n3)n2)C1 [Ex. 88, (R)-3-((4-((1H-Indazol-5-yl)ethynyl)-[2,4′-bipyrimidin]-2′-yl)amino)tetrahydrothiophene 1,1-dioxide] | * (<50-fold selectivity for ROCK2) |  |
| 10 to 100 | 0.01 to 0.099 | C(#Cc1ccnc(-c2ccnc(NCc3nc4ccccc4[nH]3)n2)n1)c1ccc2[nH]ncc2c1 [Ex. 57, N-((1H-Benzo[d]imidazol-2-yl)methyl)-4-((1H-indazol-5-yl)ethynyl)-[2,4′-bipyrimidin]-2′-amine] | **** (>500-fold selectivity for ROCK2) |  |
| 1 to 9.9 | < 0.01 | C(#Cc1ccnc(-c2ccnc(NC[C@H]3CCOC3)n2)n1)c1ccc2[nH]ncc2c1 [Ex. 69, (R)-4-((1H-Indazol-5-yl)ethynyl)-N-((tetrahydrofuran-3-yl)methyl)-[2,4′-bipyrimidin]-2′-amine] | *** (151 to 500-fold selectivity for ROCK2) |  |
| 1 to 9.9 | < 0.01 | Fc1n[nH]c2ccc(C#Cc3ccnc(-c4ccnc(NCC5CCCO5)n4)n3)cc12 (stereo not drawn) [Ex. 50, 4-((3-Fluoro-1H-indazol-5-yl)ethynyl)-N-((tetrahydrofuran-2-yl)methyl)-[2,4′-bipyrimidin]-2′-amine] | *** (151 to 500-fold selectivity for ROCK2) |  |
| 10 to 100 | 1 to 9.9 | Fc1cc(F)c(F)c(CNc2nccc(-c3nccc(C#Cc4ccc5[nH]nc(F)c5c4)n3)n2)c1 [Ex. 60, 4-((3-Fluoro-1H-indazol-5-yl)ethynyl)-N-(2,3,5-trifluorobenzyl)-[2,4′-bipyrimidin]-2′-amine] | * (<50-fold selectivity for ROCK2) |  |
| 0.1 to 0.99 | < 0.01 | COC(=O)[C@H]1CC[C@@H](Nc2nccc(-c3nccc(C#Cc4ccc5[nH]ncc5c4)n3)n2)CC1 [Ex. 91, (1s,4s)-Methyl 4-((4-((1H-indazol-5-yl)ethynyl)-[2,4′-bipyrimidin]-2′-yl)amino)cyclohexanecarboxylate] | ** (50 to 150-fold selectivity for ROCK2) |  |
| 1 to 9.9 | < 0.01 | C(#Cc1ccnc(-c2ccnc(NCC3CCCCO3)n2)n1)c1ccc2[nH]ncc2c1 (stereo not drawn) [Ex. 76, 4-((1H-Indazol-5-yl)ethynyl)-N-((tetrahydro-2H-pyran-2-yl)methyl)-[2,4′-bipyrimidin]-2′-amine] | *** (151 to 500-fold selectivity for ROCK2) |  |
